8 compounds from ChEMBL document CHEMBL4665749, “Usnic Acid Conjugates with Monoterpenoids as Potent Tyrosyl-DNA Phosphodiesterase 1 Inhibitors” (J Nat Prod, 2020) can be followed below.

Some results are limits rather than exact numbers.

Assay [1] relates to HeLa. Kind of assay: Cytotoxicity against human HeLa cells assessed as reduction in cell viability after 3 days by fluorometric assay. In kind it is functional. The following applies: 72 h.
For assay [2], the system named is HeLa. As to the kind of experiment: Potency index, ratio of CC50 of topotecan to CC50 of compound for human HeLa cells assessed as reduction in cell viability after 3 days in presence of topotecan by fluorometric assay. It counts as functional.
Assay [3] has as its system HeLa. Kind of assay: Cytotoxicity against human HeLa cells assessed as reduction in cell viability after 3 days in presence of topotecan by fluorometric assay. In kind it is functional. The note with it: 72 h.
The target of assay [4] is Tyrosyl-DNA phosphodiesterase 1 (Homo sapiens, UniProt Q9NUW8). Kind of assay: Inhibition of recombinant TDP1 (unknown origin) expressed in Escherichia coli using 5'-FAM/3'-BHQ1 tagged oligonucleotide as substrate by fluorescence assay.
Tyrosyl-DNA phosphodiesterase 1, sequence (Q9NUW8 whole entry): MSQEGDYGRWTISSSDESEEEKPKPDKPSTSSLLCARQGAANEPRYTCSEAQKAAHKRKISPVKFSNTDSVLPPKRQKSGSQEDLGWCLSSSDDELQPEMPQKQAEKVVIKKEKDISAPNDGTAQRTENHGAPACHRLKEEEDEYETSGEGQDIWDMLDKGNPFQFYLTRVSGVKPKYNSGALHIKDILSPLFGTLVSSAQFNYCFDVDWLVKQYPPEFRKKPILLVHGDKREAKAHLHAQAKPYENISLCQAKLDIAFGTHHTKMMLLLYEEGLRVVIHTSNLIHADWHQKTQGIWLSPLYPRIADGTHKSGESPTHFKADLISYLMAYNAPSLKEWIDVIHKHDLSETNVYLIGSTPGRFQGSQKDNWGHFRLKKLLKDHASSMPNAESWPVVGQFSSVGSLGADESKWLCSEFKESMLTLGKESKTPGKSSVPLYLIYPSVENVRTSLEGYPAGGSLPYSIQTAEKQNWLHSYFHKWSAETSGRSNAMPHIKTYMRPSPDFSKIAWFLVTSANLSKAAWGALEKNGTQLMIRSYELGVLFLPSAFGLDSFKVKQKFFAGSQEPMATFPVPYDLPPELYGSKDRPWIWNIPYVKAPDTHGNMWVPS

On to `CC[C@@]1(O)C(=O)OCc2c1cc1n(c2=O)Cc2cc3c(CN(C)C)c(O)ccc3nc2-1` [TOPOTECAN], for which the 50% cytotoxic concentration (CC50) in the assay with HeLa [1] came to 4.5 µM.
On to `CC(=O)C1=C(O)C=C2Oc3c(-c4csc(N/N=C5/C[C@H]6CC[C@]5(C)C6(C)C)n4)c(O)c(C)c(O)c3[C@@]2(C)C1=O`, for which the Ratio with HeLa [2] turned out to be 1.7. Also, the figures for the CC50 in the assay on HeLa [3] and with HeLa [1] were 2.7 µM and 20 µM, respectively. Also, the half-inhibitory concentration (IC50) in assay [4] worked out at 0.031 µM.
The corresponding values for `CC(=O)C1=C(O)C=C2Oc3c(-c4csc(NN=C5C=C(C)[C@H]6C[C@@H]5C6(C)C)n4)c(O)c(C)c(O)c3[C@@]2(C)C1=O` (mixture of isomers) are 1.3, 3.5 µM, 20 µM and 0.046 µM.
As to `CC(=O)C1=C(O)C=C2Oc3c(-c4csc(N/N=C\C5=C[C@@H]6C[C@H](C5)C6(C)C)n4)c(O)c(C)c(O)c3[C@@]2(C)C1=O`, in the assay on HeLa [2], the Ratio worked out at 1.7. Moreover, the CC50 was 2.7 µM in the assay with HeLa [3] and above 100 µM in the assay with HeLa [1]. In addition, in assay [4], the half-inhibitory concentration (IC50) was 0.045 µM.
For `CC(=O)C1=C(O)C=C2Oc3c(-c4csc(NN=CCC(C)CCCC(C)(C)O)n4)c(O)c(C)c(O)c3[C@@]2(C)C1=O` (stereo not given in full), the CC50 in the assay with HeLa [1] was 20 µM. Besides, the IC50 in assay [4] is 0.139 µM.
As for `CCCCCCCC=NNc1nc(-c2c(O)c(C)c(O)c3c2OC2=CC(O)=C(C(C)=O)C(=O)[C@@]23C)cs1`, the cytotoxic concentration (CC50) with HeLa [1] worked out at 20 µM. Also, the IC50 in assay [4] turned out to be 0.088 µM.
For the compound `CC(=O)C1=C(O)C=C2Oc3c(-c4csc(NN=CCC(C)CCC=C(C)C)n4)c(O)c(C)c(O)c3[C@@]2(C)C1=O` (stereo not given in full), in the assay on HeLa [2], the Ratio is recorded as 7.1. Moreover, the CC50 in the assay on HeLa [3] was found to be 0.63 µM; in the assay with HeLa [1], 20 µM. In assay [4], the half-maximal inhibitory concentration (IC50) was determined as 0.0164 µM.
Regarding `C=C(C)[C@H]1CC=C(/C=N\Nc2nc(-c3c(O)c(C)c(O)c4c3OC3=CC(O)=C(C(C)=O)C(=O)[C@@]34C)cs2)CC1`, in the assay with HeLa [2], the Ratio is given as 3.8. Besides, the results for the half-maximal cytotoxic concentration (CC50) with HeLa [3] and in the assay on HeLa [1] were 1.2 µM and 20 µM, respectively. Besides, the IC50 in assay [4] was determined as 0.027 µM.

As usually defined, the CC50 is the concentration at which the toxic effect on the cells reaches its halfway point. A word on the IC50: it is the concentration that gives 50% inhibition.
